Reference: ChEMBL document CHEMBL1201862, “PubChem BioAssay data set” (2004)
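Cultured in 96-well plates, cells were exposed to test compound for 48 hours across five concentrations. At the GI50, growth is halved.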 Calls of active or inactive are those of the source. Cut-off read from the data, not from the text of the source: active = GI50 up to about 1.1 µM and inactive = higher.

Columns and labels:
Test in all cases: inhibition of tumour cell growth, NCI panel, 48 h
SK-MEL-5 = test system: SK-MEL-5
OVCAR-4 = test system: OVCAR-4
NCI-H522 = test system: NCI-H522
HL-60 = test system: HL-60
UACC-257 = test system: UACC-257
UACC-62 = test system: UACC-62
K562 = test system: K562
HT-29 = test system: HT-29
M19-MEL = test system: M19-MEL
HOP-62 = test system: HOP-62
NCI-H460 = test system: NCI-H460
ACHN = test system: ACHN
TK-10 = test system: TK-10
U-251 = test system: U-251
SR = test system: SR
CAKI-1 = test system: CAKI-1
HCT-116 = test system: HCT-116
DMS-273 = test system: DMS-273
MOLT-4 = test system: MOLT-4
RPMI-8226 = test system: RPMI-8226
HOP-18 = test system: HOP-18
KM-20L2 = test system: KM-20L2
XF498 = test system: XF498
OVCAR-8 = test system: OVCAR-8
SF-295 = test system: SF-295
SNB-78 = test system: SNB-78
IGROV-1 = test system: IGROV-1
OVCAR-5 = test system: OVCAR-5
SNB-75 = test system: SNB-75
786-0 = test system: 786-0
UO-31 = test system: UO-31
SN12C = test system: SN12C
M14 = test system: M14
COLO 205 = test system: COLO 205
SF-268 = test system: SF-268
SK-MEL-2 = test system: SK-MEL-2
SK-OV-3 = test system: SK-OV-3
EKVX = test system: EKVX
HCC 2998 = test system: HCC 2998
SF-539 = test system: SF-539
HCT-15 = test system: HCT-15
DLD-1 = test system: DLD-1
RXF 393 = test system: RXF 393
NCI-H226 = test system: NCI-H226
CCRF-CEM = test system: CCRF-CEM
SNB-19 = test system: SNB-19
Malme-3M = test system: Malme-3M
SW-620 = test system: SW-620
KM12 = test system: KM12
A498 = test system: A498
NCI-H23 = test system: NCI-H23
OVCAR-3 = test system: OVCAR-3
LOX IMVI = test system: LOX IMVI
A549 = test system: A549
HOP-92 = test system: HOP-92
SK-MEL-28 = test system: SK-MEL-28
LXFL 529 = test system: LXFL 529
DMS-114 = test system: DMS-114

`C=CCCCCCCCCCP(=O)(c1ccccc1)c1ccc2c(c1)OCCOCCOCCOCCO2` (stereo unspecified) was tested, and the GI50 (SK-MEL-5) was 11.3 µM (inactive), the GI50 (OVCAR-4) was 11.5 µM (inactive) and the GI50 (NCI-H522) was 12.1 µM (inactive). For the same compound, the GI50 (HL-60) was 5.18 µM (inactive), the GI50 (UACC-257) was 16.7 µM (inactive) and the GI50 (UACC-62) was 15.7 µM (inactive). The GI50 (K562) was 9.42 µM (inactive), the GI50 (HT-29) was 12.2 µM (inactive) and the GI50 (M19-MEL) was 18.4 µM (inactive). For the same compound, the GI50 (HOP-62) was 16.6 µM (inactive), the GI50 (NCI-H460) was 13.2 µM (inactive) and the GI50 (ACHN) was 16.7 µM (inactive). The GI50 (TK-10) was 18.4 µM (inactive), the GI50 (U-251) was 15.9 µM (inactive) and the GI50 (SR) was 7.16 µM (inactive). The GI50 (CAKI-1) was > 100 µM (inactive), the GI50 (HCT-116) was 10.4 µM (inactive) and the GI50 (DMS-273) was 15.1 µM (inactive). For the same compound, the GI50 (MOLT-4) was 9.75 µM (inactive), the GI50 (RPMI-8226) was 11.7 µM (inactive) and the GI50 (HOP-18) was 16.3 µM (inactive). For the same compound, the GI50 (KM-20L2) was 14.1 µM (inactive), the GI50 (XF498) was 18.7 µM (inactive) and the GI50 (OVCAR-8) was 15.9 µM (inactive). For the same compound, the GI50 (SF-295) was 15.2 µM (inactive), the GI50 (SNB-78) was 19.1 µM (inactive) and the GI50 (IGROV-1) was 16 µM (inactive). For the same compound, the GI50 (OVCAR-5) was 17.4 µM (inactive), the GI50 (SNB-75) was 18.5 µM (inactive) and the GI50 (786-0) was 16.3 µM (inactive). For the same compound, the GI50 (UO-31) was 10.8 µM (inactive), the GI50 (SN12C) was 16.3 µM (inactive) and the GI50 (M14) was > 100 µM (inactive). The GI50 (COLO 205) was 15.9 µM (inactive), the GI50 (SF-268) was 15.3 µM (inactive) and the GI50 (SK-MEL-2) was 18 µM (inactive). For the same compound, the GI50 (SK-OV-3) was 20.2 µM (inactive), the GI50 (EKVX) was 19.6 µM (inactive) and the GI50 (HCC 2998) was 17.3 µM (inactive). The GI50 (SF-539) was 17.3 µM (inactive), the GI50 (HCT-15) was 13.8 µM and the GI50 (DLD-1) was 13.6 µM (inactive). The GI50 (RXF 393) was 14.2 µM (inactive), the GI50 (NCI-H226) was 13.7 µM (inactive) and the GI50 (CCRF-CEM) was 16.5 µM (inactive). The GI50 (SNB-19) was 13.1 µM (inactive), the GI50 (Malme-3M) was 17.7 µM (inactive) and the GI50 (SW-620) was 16 µM (inactive). For the same compound, the GI50 (KM12) was 12.8 µM (inactive), the GI50 (A498) was 14.2 µM (inactive) and the GI50 (NCI-H23) was 14.9 µM (inactive). For the same compound, the GI50 (OVCAR-3) was 7.08 µM (inactive), the GI50 (LOX IMVI) was 15.3 µM (inactive) and the GI50 (A549) was 14.6 µM (inactive). The GI50 (HOP-92) was > 100 µM (inactive) and the GI50 (SK-MEL-28) was 16.3 µM (inactive).
With `C[C@@H](NC1CCC[C@H]1O)c1ccccc1` (stereo partly specified) the GI50 (SK-MEL-5) was > 100 µM (inactive), the GI50 (OVCAR-4) was > 100 µM (inactive) and the GI50 (HL-60) was > 100 µM (inactive). For the same compound, the GI50 (UACC-257) was > 100 µM (inactive), the GI50 (UACC-62) was > 100 µM (inactive) and the GI50 (K562) was > 100 µM (inactive). For the same compound, the GI50 (HT-29) was > 100 µM (inactive), the GI50 (M19-MEL) was > 100 µM (inactive) and the GI50 (HOP-62) was > 100 µM (inactive). For the same compound, the GI50 (NCI-H460) was > 100 µM (inactive), the GI50 (ACHN) was > 100 µM (inactive) and the GI50 (TK-10) was > 100 µM (inactive). The GI50 (U-251) was > 100 µM (inactive), the GI50 (CAKI-1) was > 100 µM (inactive) and the GI50 (HCT-116) was > 100 µM (inactive). For the same compound, the GI50 (DMS-273) was > 100 µM (inactive), the GI50 (MOLT-4) was > 100 µM (inactive) and the GI50 (RPMI-8226) was > 100 µM (inactive). For the same compound, the GI50 (HOP-18) was > 100 µM (inactive), the GI50 (KM-20L2) was > 100 µM (inactive) and the GI50 (XF498) was 5.66 µM (inactive). The GI50 (OVCAR-8) was > 100 µM (inactive), the GI50 (SF-295) was > 100 µM (inactive) and the GI50 (SNB-78) was > 100 µM (inactive). For the same compound, the GI50 (IGROV-1) was > 100 µM (inactive), the GI50 (OVCAR-5) was > 100 µM (inactive) and the GI50 (SNB-75) was > 100 µM (inactive). The GI50 (786-0) was > 100 µM (inactive), the GI50 (UO-31) was > 100 µM (inactive) and the GI50 (SN12C) was > 100 µM (inactive). The GI50 (M14) was > 100 µM (inactive), the GI50 (COLO 205) was > 100 µM (inactive) and the GI50 (SK-MEL-2) was > 100 µM (inactive). The GI50 (LXFL 529) was > 100 µM (inactive), the GI50 (SK-OV-3) was > 100 µM (inactive) and the GI50 (EKVX) was > 100 µM (inactive). The GI50 (HCC 2998) was > 100 µM (inactive), the GI50 (HCT-15) was over 100 µM and the GI50 (DLD-1) was > 100 µM (inactive). For the same compound, the GI50 (RXF 393) was > 100 µM (inactive), the GI50 (NCI-H226) was > 100 µM (inactive) and the GI50 (CCRF-CEM) was > 100 µM (inactive). For the same compound, the GI50 (SNB-19) was > 100 µM (inactive), the GI50 (Malme-3M) was > 100 µM (inactive) and the GI50 (SW-620) was > 100 µM (inactive). For the same compound, the GI50 (KM12) was > 100 µM (inactive), the GI50 (OVCAR-3) was > 100 µM (inactive) and the GI50 (LOX IMVI) was > 100 µM (inactive). For the same compound, the GI50 (A549) was > 100 µM (inactive), the GI50 (HOP-92) was > 100 µM (inactive) and the GI50 (SK-MEL-28) was > 100 µM (inactive). The GI50 (DMS-114) was > 100 µM (inactive).
`CN(C)CCCSc1c2ccccc2nc2cc(NCC(=O)Nc3ccccc3-c3ccccc3NC(=O)CNc3ccc4c(SCCCN(C)C)c5ccccc5nc4c3)ccc12` was tested, and the GI50 (SK-MEL-5) was > 100 µM (inactive), the GI50 (OVCAR-4) was > 100 µM (inactive) and the GI50 (NCI-H522) was > 100 µM (inactive). For the same compound, the GI50 (HL-60) was 18.3 µM (inactive), the GI50 (UACC-257) was > 100 µM (inactive) and the GI50 (UACC-62) was > 100 µM (inactive). The GI50 (K562) was 71.4 µM (inactive), the GI50 (HT-29) was > 100 µM (inactive) and the GI50 (M19-MEL) was 49.7 µM (inactive). The GI50 (HOP-62) was > 100 µM (inactive), the GI50 (NCI-H460) was > 100 µM (inactive) and the GI50 (ACHN) was > 100 µM (inactive). The GI50 (TK-10) was > 100 µM (inactive), the GI50 (U-251) was > 100 µM (inactive) and the GI50 (SR) was > 100 µM (inactive). The GI50 (CAKI-1) was > 100 µM (inactive), the GI50 (HCT-116) was > 100 µM (inactive) and the GI50 (DMS-273) was > 100 µM (inactive). For the same compound, the GI50 (MOLT-4) was 26.5 µM (inactive), the GI50 (RPMI-8226) was 65 µM (inactive) and the GI50 (HOP-18) was > 100 µM (inactive). The GI50 (KM-20L2) was > 100 µM (inactive), the GI50 (XF498) was 71.8 µM (inactive) and the GI50 (OVCAR-8) was > 100 µM (inactive). The GI50 (SF-295) was > 100 µM (inactive), the GI50 (SNB-78) was > 100 µM (inactive) and the GI50 (IGROV-1) was > 100 µM (inactive). The GI50 (OVCAR-5) was > 100 µM (inactive), the GI50 (SNB-75) was > 100 µM (inactive) and the GI50 (786-0) was > 100 µM (inactive). For the same compound, the GI50 (UO-31) was > 100 µM (inactive), the GI50 (SN12C) was > 100 µM (inactive) and the GI50 (M14) was > 100 µM (inactive). For the same compound, the GI50 (COLO 205) was 45.1 µM (inactive), the GI50 (SF-268) was > 100 µM (inactive) and the GI50 (SK-MEL-2) was > 100 µM (inactive). The GI50 (LXFL 529) was > 100 µM (inactive), the GI50 (SK-OV-3) was > 100 µM (inactive) and the GI50 (EKVX) was > 100 µM (inactive). The GI50 (HCC 2998) was > 100 µM (inactive), the GI50 (SF-539) was > 100 µM (inactive) and the GI50 (HCT-15) was over 100 µM. For the same compound, the GI50 (DLD-1) was > 100 µM (inactive), the GI50 (RXF 393) was > 100 µM (inactive) and the GI50 (NCI-H226) was > 100 µM (inactive). For the same compound, the GI50 (CCRF-CEM) was 25.3 µM (inactive), the GI50 (SNB-19) was > 100 µM (inactive) and the GI50 (Malme-3M) was 59.4 µM (inactive). For the same compound, the GI50 (SW-620) was > 100 µM (inactive), the GI50 (KM12) was 84.3 µM (inactive) and the GI50 (A498) was > 100 µM (inactive). The GI50 (NCI-H23) was > 100 µM (inactive), the GI50 (OVCAR-3) was > 100 µM (inactive) and the GI50 (LOX IMVI) was > 100 µM (inactive). For the same compound, the GI50 (A549) was > 100 µM (inactive), the GI50 (HOP-92) was > 100 µM (inactive) and the GI50 (SK-MEL-28) was > 100 µM (inactive). For the same compound, the GI50 (DMS-114) was > 100 µM (inactive).
